Test results published in PMC9098913, “In vitro reconstitution of Escherichia coli divisome activation” (Nature Communications, 2022).

Assay: Diffusion coefficient of His-tagged FtsAs and His-SUMO on Tris-NTA membranes (FRAP)
Experimental: To study colocalization of His-tagged variants of FtsA, 0.5–1 µM of Cy5 labelled His-tagged FtsAs were added to the chamber, incubated for 20 min and washed 6x with reaction buffer. […] To control the density of membrane-bound FtsA, SUVs without and with Tris-NTA lipids were mixed to obtain the respective Tris-NTA concentrations. To perform FRET/FRAP experiments, equimolar concentrations of Cy3 and Cy5 labelled His-tagged FtsAs (total 0.5–1 µM) or His-SUMO-Cys were added to a chamber and treated as above. […] FRAP experiments were performed as described before.
Bleaching the acceptor dye leads to an increase in the donor intensity, which can be used to quantify the Foerster Resonance energy transfer (FRET)[48]. FRET efficiency was quantified with E%=Ipost/Ipost+Ipre⋅100 , where Ipost is the intensity of the […] and Ipre is the […]. […] To extract the contribution of both processes, we adjusted a routine recently published by Gerganova et al.[33]. In short, the code provides the contribution of both modes of recovery by analysing the shape of the fluorescence recovery profile. […] Contribution of diffusion leads to a change of the slope of the outer borders of the bleached region (S4h right). Thus, by measuring the change of the slope of the border recovery, diffusion and simple on/off binding can be distinguished. We developed “FRAPdiff”, a graphical user interface, which uses the original fit routine by David Rutkowski. It can be used directly on.tiff movies with annotated bleach regions as ImageJ ROIs. In addition, we added optional bleach correction, user selectable projection axis (x or y), and optional mirroring of the recovery profiles, if bleaching was not symmetric. The original fit routine for estimating the recovery and diffusion dynamics can be found at https://github.com/davidmrutkowski/1DReflectingDiffusion. FRAPdiff is available at 10.5281/zenodo.6400639[49] under the GPLv3 open-source license.

FtsA-His6: FtsA WT (1-405) with amphipathic helix replaced by C-terminal His-tag
Diffusion Coefficient (0.1% Tris NTA, + FtsZ, mean (n: WT 2, R286W 3)): 0.07 µm2/s
Diffusion Coefficient (0.1% Tris NTA, + FtsZ, replicate Exp1): 0.14 µm2/s
Diffusion Coefficient (0.1% Tris NTA, + FtsZ, replicate Exp2): 0.000245 µm2/s
Diffusion Coefficient (0.1% Tris NTA, without FtsZ, replicate Exp1): 0.35 µm2/s
Diffusion Coefficient (0.1% Tris NTA, without FtsZ, replicate Exp2): 0.29 µm2/s
Diffusion Coefficient (0.4% Tris NTA, + FtsZ, mean (n: WT 2, R286W 3)): 0.0146 µm2/s
Diffusion Coefficient (0.4% Tris NTA, + FtsZ, replicate Exp1): 0.0175 µm2/s
Diffusion Coefficient (0.4% Tris NTA, + FtsZ, replicate Exp2): 0.0117 µm2/s
Diffusion Coefficient (0.4% Tris NTA, without FtsZ, replicate Exp1): 0.11 µm2/s
Diffusion Coefficient (0.4% Tris NTA, without FtsZ, replicate Exp2): 0.10 µm2/s
Diffusion Coefficient (0.6% Tris NTA, + FtsZ, mean (n: WT 5, R286W 5)): 0.0113 µm2/s
Diffusion Coefficient (0.6% Tris NTA, + FtsZ, replicate Exp1): 0.02 µm2/s
Diffusion Coefficient (0.6% Tris NTA, + FtsZ, replicate Exp2): 0.01 µm2/s
Diffusion Coefficient (0.6% Tris NTA, + FtsZ, replicate Exp3): 0.0152 µm2/s
Diffusion Coefficient (0.6% Tris NTA, + FtsZ, replicate Exp4): 0.00625 µm2/s
Diffusion Coefficient (0.6% Tris NTA, + FtsZ, replicate Exp5): 0.00411 µm2/s
Diffusion Coefficient (0.6% Tris NTA, without FtsZ, mean (n: WT 4, R286W 5, SUMO 4)): 0.03 µm2/s
Diffusion Coefficient (0.6% Tris NTA, without FtsZ, replicate Exp1): 0.0256 µm2/s
Diffusion Coefficient (0.6% Tris NTA, without FtsZ, replicate Exp2): 0.00783 µm2/s
Diffusion Coefficient (0.6% Tris NTA, without FtsZ, replicate Exp3): 0.0422 µm2/s
Diffusion Coefficient (0.6% Tris NTA, without FtsZ, replicate Exp4): 0.046 µm2/s
Diffusion Coefficient (0.8% Tris NTA, + FtsZ, mean): 0.012 µm2/s
Diffusion Coefficient (0.8% Tris NTA, + FtsZ, replicate Exp1): 0.00842 µm2/s
Diffusion Coefficient (0.8% Tris NTA, + FtsZ, replicate Exp2): 0.00437 µm2/s
Diffusion Coefficient (0.8% Tris NTA, + FtsZ, replicate Exp3): 0.00795 µm2/s
Diffusion Coefficient (0.8% Tris NTA, + FtsZ, replicate Exp4): 0.03 µm2/s
Diffusion Coefficient (0.8% Tris NTA, + FtsZ, replicate Exp5): 0.00835 µm2/s
Diffusion Coefficient (0.8% Tris NTA, without FtsZ, mean): 0.0135 µm2/s
Diffusion Coefficient (0.8% Tris NTA, without FtsZ, replicate Exp1): 0.0179 µm2/s
Diffusion Coefficient (0.8% Tris NTA, without FtsZ, replicate Exp3): 8.35e-15 µm2/s
Diffusion Coefficient (0.8% Tris NTA, without FtsZ, replicate Exp4): 0.0124 µm2/s
Diffusion Coefficient (0.8% Tris NTA, without FtsZ, replicate Exp5): 0.0374 µm2/s
Diffusion Coefficient (1% Tris NTA, + FtsZ, mean): 0.02 µm2/s
Diffusion Coefficient (1% Tris NTA, + FtsZ, replicate Exp1): 0.0115 µm2/s
Diffusion Coefficient (1% Tris NTA, + FtsZ, replicate Exp2): 0.00322 µm2/s
Diffusion Coefficient (1% Tris NTA, + FtsZ, replicate Exp3): 0.00542 µm2/s
Diffusion Coefficient (1% Tris NTA, + FtsZ, replicate Exp4): 0.00574 µm2/s
Diffusion Coefficient (1% Tris NTA, + FtsZ, replicate Exp5): 0.07 µm2/s
Diffusion Coefficient (1% Tris NTA, + FtsZ, replicate Exp6): 0.0435 µm2/s
Diffusion Coefficient (1% Tris NTA, + FtsZ, replicate Exp7): 0.000437 µm2/s
Diffusion Coefficient (1% Tris NTA, without FtsZ, mean): 0.0254 µm2/s
Diffusion Coefficient (1% Tris NTA, without FtsZ, replicate Exp1): 0.0438 µm2/s
Diffusion Coefficient (1% Tris NTA, without FtsZ, replicate Exp2): 0.000108 µm2/s
Diffusion Coefficient (1% Tris NTA, without FtsZ, replicate Exp3): 6.32e-6 µm2/s
Diffusion Coefficient (1% Tris NTA, without FtsZ, replicate Exp4): 0.06 µm2/s
Diffusion Coefficient (Tris 0.10 %, + FtsZ): 0.07 µm2/s
Diffusion Coefficient (Tris 0.10 %, without FtsZ): 0.32 µm2/s
Diffusion Coefficient (Tris 0.40 %, + FtsZ): 0.0146 µm2/s
Diffusion Coefficient (Tris 0.40 %, without FtsZ): 0.11 µm2/s
Diffusion Coefficient (Tris 0.60 %, + FtsZ): 0.0113 µm2/s
Diffusion Coefficient (Tris 0.60 %, without FtsZ): 0.03 µm2/s
Diffusion Coefficient (Tris 0.80 %, + FtsZ): 0.012 µm2/s
Diffusion Coefficient (Tris 0.80 %, without FtsZ): 0.0135 µm2/s
Diffusion Coefficient (Tris 1.00 %, + FtsZ): 0.02 µm2/s
Diffusion Coefficient (Tris 1.00 %, without FtsZ): 0.0254 µm2/s
Diffusion Coefficient (Tris 2.00 %, + FtsZ): 0.000263 µm2/s
Diffusion Coefficient (Tris 2.00 %, without FtsZ): 0.00604 µm2/s
Diffusion Coefficient ([…] Tris NTA, + FtsZ, mean (n: WT 2, R286W 3)): 0.03 µm2/s
Diffusion Coefficient ([…] Tris NTA, + FtsZ, replicate Exp1): 0.05 µm2/s
Diffusion Coefficient ([…] Tris NTA, + FtsZ, replicate Exp2): 0.0108 µm2/s
Diffusion Coefficient ([…] Tris NTA, without FtsZ, replicate Exp1): 0.11 µm2/s
Diffusion Coefficient ([…] Tris NTA, without FtsZ, replicate Exp2): 0.14 µm2/s
Diffusion Coefficient ([…] Tris-NTA, + N (FtsNcyto), mean): 1.72E-05 µm2/s
Diffusion Coefficient ([…] Tris-NTA, + N/Z, Exp. 1): 1.69E-05 µm2/s
Diffusion Coefficient ([…] Tris-NTA, + N/Z, Exp. 2): 1.87E-06 µm2/s
Diffusion Coefficient ([…] Tris-NTA, + N/Z, Exp. 3): 5.64E-12 µm2/s
Diffusion Coefficient ([…] Tris-NTA, + N/Z, mean): 6.26E-06 µm2/s
Diffusion Coefficient ([…] Tris-NTA, + N, Exp. 1): 1.23E-05 µm2/s
Diffusion Coefficient ([…] Tris-NTA, + N, Exp. 2): 2.69E-05 µm2/s
Diffusion Coefficient ([…] Tris-NTA, + N, Exp. 3): 1.23E-05 µm2/s
Diffusion Coefficient ([…] Tris-NTA, + Z (FtsZ), mean): 1.67E-03 µm2/s
Diffusion Coefficient ([…] Tris-NTA, + Z, Exp. 1): 3.64E-05 µm2/s
Diffusion Coefficient ([…] Tris-NTA, + Z, Exp. 2): 4.36E-03 µm2/s
Diffusion Coefficient ([…] Tris-NTA, + Z, Exp. 3): 1.74E-03 µm2/s
Diffusion Coefficient ([…] Tris-NTA, + Z, Exp. 4): 5.51E-04 µm2/s
Diffusion Coefficient ([…] Tris-NTA, alone, Exp. 1): 1.17E-02 µm2/s
Diffusion Coefficient ([…] Tris-NTA, alone, Exp. 2): 2.57E-05 µm2/s
Diffusion Coefficient ([…] Tris-NTA, alone, Exp. 3): 3.15E-03 µm2/s
Diffusion Coefficient ([…] Tris-NTA, alone, Exp. 4): 7.92E-04 µm2/s
Diffusion Coefficient ([…] Tris-NTA, alone, mean): 3.92E-03 µm2/s
